The Ki is the equilibrium dissociation constant of an inhibitor or competing ligand from its target.

The experiment has as its target T1, CCK-B receptor (Mus musculus, UniProt P56481).
T1 construct: from tissue; host or cells: cerebral cortex membranes of male CFLP mice
T1 sequence (P56481 1-453): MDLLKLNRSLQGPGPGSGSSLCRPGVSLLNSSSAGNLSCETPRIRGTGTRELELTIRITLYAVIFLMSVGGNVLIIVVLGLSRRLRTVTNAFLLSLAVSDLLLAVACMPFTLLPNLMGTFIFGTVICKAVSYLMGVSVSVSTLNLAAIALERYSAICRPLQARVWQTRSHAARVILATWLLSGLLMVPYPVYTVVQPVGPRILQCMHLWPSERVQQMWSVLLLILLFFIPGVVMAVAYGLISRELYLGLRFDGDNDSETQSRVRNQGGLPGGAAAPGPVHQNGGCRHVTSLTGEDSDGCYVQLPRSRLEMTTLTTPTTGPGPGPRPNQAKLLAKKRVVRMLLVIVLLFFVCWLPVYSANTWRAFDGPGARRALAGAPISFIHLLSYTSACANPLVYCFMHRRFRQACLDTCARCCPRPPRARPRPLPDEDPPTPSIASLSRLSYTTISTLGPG
As to the kind of experiment: Displacement of tritiated-pentagastrin binding to mouse cerebral cortical membranes. Details: species or system mouse (male CFLP mice). The settings on record: displacement of 2 nM tritiated-pentagastrin, n = number of assays, read-out: Receptor Affinity CCI-B (Ki). The method, then: The biological activity of compounds of the present invention was evaluated employing an initial screening test which rapidly and accurately measured the binding of the tested compound to known CCK receptor sites. […] (See Hays et al, Neuropeptides 1:53-62, 1980; and Satuer et al, Science 208:1155-1156, 1980).
In this screening test, the cerebral cortices taken from male CFLP mice weighing between 30-40 g were dissected on ice, weighed, and homogenized in 10 volumes of 50 mM Tris-HCl buffer (pH 7.4 at 0°-4° C.). The resulting suspension was centrifuged, the supernate was discarded, and the pellet was washed by resuspension in Tris-HCl buffer followed by recentrifugation. The final pellet was resuspended in 20 volumes of […] Hepes buffer (pH 7.2 at 23° C.) containing 130 mM NaCl, […] KCl, […] MgCl2, […] EDTA, 5 mg/mL bovine albumin, and bacitracin (0.25 mg/mL).
In saturation studies, cerebral cortical membranes were incubated at 23° C. for 120 minutes in a final volume of 500 μL of Hepes incubation buffer (pH 7.2) together with 0.2-20 nM tritiated-pentagastrin (Amersham International, England).
In the displacement experiments, membranes were incubated with a single concentration (2 nM) of iigand, together with increasing concentrations (10^-11 to […]) of competitive test compound. In each case, the nonspecific binding was defined as that persisting in the presence of the unlabeled octapeptide CCK26-33 (10^-6 M).
Following incubation, radioactivity bound to membranes was separated from that free in solution by rapid filtration through Whatman GF/B filters and washed three times with 4 mL of ice cold Tris-HCl buffer. Filters from samples incubated with tritiated-pentagastrin were placed in polyethylene vials with 4 mL of scintillation cocktail, and the radioactivity was estimated by liquid scintillation spectrometry (efficiency 47-52%).
The specific binding to CCK receptor sites was defined as the total bound tritiated-pentagastrin minus the amount of tritiated-pentagastrin bound in the presence of 10^-6 octapeptide, CCK26-33.
Saturation curves for specific tritiated-pentagastrin binding to mouse cortical membranes were analyzed by the methods of Scatchard (Ann. New York Acad. Sci. 51:660-672, 1949, and Hill (J. Physiol. 40:IV-VIII, 1910, to provide estimates for the maximum number of binding sites (Bmax) and the equilibrium dissociation constant (Ka).
In displacement experiments, inhibition curves were analyzed by either logit-log plots or the iterative curve fitting computer program ALLFIT (DeLean, Munson and Redbard, 1978) to provide estimates of the IC50 and nH (apparent Hill coefficient) values). (IC50 values were defined as the concentration of test compound required to produce 50% inhibition of specific binding.)
The inhibition constant (Ki) of the test compound was then calculated according to the Cheng-Prusoff equation: [formula] where [L] is the concentration of radiolabel and Ka is the equilibrium dissociation constant.

With `C[C@](Cc1c[nH]c2ccccc12)(NC(=O)OC1C2CC3CC(C2)CC1C3)C(=O)N[C@H](CC(=O)NCC(=O)O)Cc1ccccc1` (stereo partly drawn) [Compound 11k], the inhibition constant (Ki) was found to be 0.0044 ± 0.0006 µM.

On to `C[C@](Cc1c[nH]c2ccccc12)(NC(=O)OC1C2CC3CC(C2)CC1C3)C(=O)N[C@H](CC(=O)NCCC(=O)O)Cc1ccccc1` (stereo partly drawn) [Compound 11a, β-Alanine, N-[3-[[3-(1H-indol-3-yl)-2-methyl-1-oxo-2-[[(tricyclo[3.3.1.1^3,7]dec-2-yloxy)carbonyl]amino]propyl]amino]-1-oxo-4-phenylbutyl]-, [R-(R*,S*)]], for which the Ki came to 0.00944 µM.

On to `CCOC(=O)CNC(=O)C[C@H](Cc1ccccc1)NC(=O)[C@@](C)(Cc1c[nH]c2ccccc12)NC(=O)OC1C2CC3CC(C2)CC1C3` (stereo partly drawn) [Compound 10k, Glycine, N-[3-[[3-(1H-indol-3-yl)-2-methyl-1-oxo-2-[[(tricyclo[3.3.1.1^3,7]dec-2-yloxy)carbonyl]amino]propyl]amino]-1-oxo-4-phenylbutyl]-, ethyl ester, [R-(R*,S*)]-], for which the Ki was 0.0179 µM.

In the case of `C[C@](Cc1c[nH]c2ccccc12)(NC(=O)OC1C2CC3CC(C2)CC1C3)C(=O)N[C@H](CC(=O)NCCCC(=O)O)Cc1ccccc1` (stereo partly drawn) [Compound 11l, Butanoic acid, 4-[[3-[[3-(1H-indol-3-yl)-2-methyl-1-oxo-2-[[(tricyclo[3.3.1.1^3,7]dec-2-yloxy)carbonyl]amino]propyl]amino]-1-oxo-4-phenylbutyl]amino]-, [R-(R*,S*)]], the Ki was 0.0106 ± 0.00012 µM.

As for `C[C@](Cc1c[nH]c2ccccc12)(NC(=O)OC1C2CC3CC(C2)CC1C3)C(=O)N[C@@H](Cc1ccccc1)C(=O)N[C@@H](CC(=O)O)C(=O)O` (stereo partly drawn) [Compound 6h, L-Aspartic acid, N-[N-[α-methyl-N-[(tricyclo[3.3.1.1^3,7]dec-2-yloxy)carbonyl]-D-tryptophyl]-L-phenylalanyl]], the inhibitory constant (Ki) amounted to 1.17 µM.

Take `CCOC(=O)CCCNC(=O)C[C@H](Cc1ccccc1)NC(=O)[C@@](C)(Cc1c[nH]c2ccccc12)NC(=O)OC1C2CC3CC(C2)CC1C3` (stereo partly drawn) [Compound 10l]: the Ki was 0.0664 µM.

In the case of `C[C@](Cc1c[nH]c2ccccc12)(NC(=O)OC1C2CC3CC(C2)CC1C3)C(=O)N[C@@H](Cc1ccccc1)C(=O)N[C@@H](CCC(=O)O)C(=O)O` (stereo partly drawn) [Compound 6i, L-Glutamic acid, N-[N-[α-methyl-N-[(tricyclo[3.3.1.1^3,7]dec-2-yloxy)carbonyl]-D-tryptophyl]-L-phenylalanyl]], the inhibition constant Ki is 1.52 µM.

In the case of `COC(=O)CC[C@H](NC(=O)[C@H](Cc1ccccc1)NC(=O)[C@@](C)(Cc1c[nH]c2ccccc12)NC(=O)OC1C2CC3CC(C2)CC1C3)C(=O)OC` (stereo partly drawn) [Compound 5f], the Ki stood at 0.11 µM.

As to `COC(=O)CCNC(=O)C[C@H](Cc1ccccc1)NC(=O)[C@@](C)(Cc1c[nH]c2ccccc12)NC(=O)OC1C2CC3CC(C2)CC1C3` (stereo partly drawn) [Compound 10a, β-Alanine, N-[3-[[3-(1H-indol-3-yl)-2-methyl-1-oxo-2-[[(tricyclo[3.3.1.1^3,7]dec-2-yloxy)carbonyl]amino]propyl]amino]-1-oxo-4-phenylbutyl]-, methyl ester, [R-(R*,S*)]], the inhibitory constant (Ki) amounted to 0.0212 ± 0.0054 µM.

As to `COC(=O)CCCCCNC(=O)[C@H](Cc1ccccc1)NC(=O)[C@@](C)(Cc1c[nH]c2ccccc12)NC(=O)OC1C2CC3CC(C2)CC1C3` (stereo partly drawn) [Compound 5d, L-Phenylalaninamide, α-methyl-N-[(tricyclo[3.3.1.1^3,7]dec-2-yloxy)carbonyl]-D-tryptophyl-N-(6-methoxy-6-oxohexyl)], the inhibition constant (Ki) was found to be 0.173 µM.

With `C[C@](Cc1c[nH]c2ccccc12)(NC(=O)OC1C2CC3CC(C2)CC1C3)C(=O)N[C@@H](Cc1ccccc1)C(=O)NCC(=O)O` (stereo partly drawn) [Compound 6j, Glycine, N-[2-methyl-N-[(tricyclo[3.3.1.1^3,7]dec-2-yloxy)carbonyl]-D-tryptophyl]-L-phenylalanyl-], the inhibitory constant (Ki) worked out at 0.00741 ± 0.00104 µM.

In the case of `C[C@](Cc1c[nH]c2ccccc12)(NC(=O)OC1C2CC3CC(C2)CC1C3)C(=O)N[C@@H](Cc1ccccc1)C(=O)NCCC(=O)O` (stereo partly drawn) [Compound 6a, β-Alanine, N-[N-[α-methyl-N-[(tricyclo[3.3.1.1^3,7]-dec-2-yloxy)carbonyl]-D-tryptophyl]-L-phenylalanyl]], the Ki was determined as 0.0279 ± 0.0041 µM.

The values are drawn from patent publication US5726200A, “Pro-drugs for CCK antagonists” (Warner-Lambert Company, priority 1996, dated 1998).
